# Experimental data as given in patent US10822376B2, “Biologically active peptides” (Baxalta Incorporated, priority 2008, dated 2020).
# *1 amine or outer side, *2 acyl side, *3 side chain or, on linkers, in order; H or OH if unused. Where a SMILES comes first, the peptide text is derived from it. Bridges are numbered along the chain shown (N, C = ends). [ ]: non-standard residue; d: D form. The star is where a group is joined. X2 = NCCCC[C@H](N)C(=O)NCCCOCCOCCOCCCN*; Suc = O=C(CCC(=O)[*:2])[*:1]; X3 = CC(=O)NCCCOCCOCCOCCCN*
# Columns and labels:
# physchem = conditions: for solubility kinetic: pH 7.4
# Method: Aqueous solubility is measured in PBS at pH 7.4 either in an assay provided by Cerep (France, Catalog ref. 900-11a) or according to the following protocol. The aim of this procedure is to determine the solubility of a drug candidate (analyte) in a buffer, by estimating the saturation concentration of the candidate in the buffer using HPLC. A known concentration of the candidate in an organic solvent is used as a standard. A stock solution of the test compound in DMSO must be prepared as the initial step. […] DMSO stock-solutions are diluted to a final concentration of 50 μM with DMSO (100% reference-solution) and buffer (test-solution) to provide a minimum volume of 500 μL of each. Both solutions are shaken at 25° C. at 950 rpm in an Eppendorf “thermomixer comfort” for at least 60 min. The suspension is centrifuged at 22 330 g for at least two min and 100 μL of the supernatant is transferred into polypropylene-inserts placed in glass vials and closed by snap-ring caps. Alternatively the solutions can be prepared in microtiter plates with half of the previously described starting solvent volume. For the determination of the solubility all samples are analyzed by HPLC in triplicate. Injection volume is at least 10 μL. The obtained data are analyzed by “Chemstation-software” (Agilent, Waldbronn, Germany). The peaks from the analyses of the organic solutions are integrated and the arithmetic mean is reported as “AUC 1” (reference area of known amount injected at the HPLC). […] The ratio of the mean “AUC 2” and “AUC 1” is calculated and thus the percentage of the dissolved amount of compound in buffer is obtained and solubility can be reported in μM.
# [1] = tested on: human FVIII inhibited plasma; experiment: Defined Intrinsic Thrombin Generation Assay (DITGA, triggered by FXIa and phospholipids); assay type: biochemical; conditions: for Activity in the Defined Intrinsic Thrombin Generation Assay: summary
# Excerpt: The intrinsic pathway of thrombin generation may be assayed in a thrombin generation assay by including FXIa and phospholipids. In such an assay, which is similar to an activated partial thromboplastin time (aPTT) test, thrombin generation is solely directed through the intrinsic pathway, and is FVIII dependent. A suitable assay is the Defined Intrinsic Thrombin Generation Assay described below. Alternatively, by employing low concentrations of TF and phospholipids instead of FXIa and phospholipids, thrombin is generated by both the extrinsic (tissue factor) and the intrinsic pathways. This form of the thrombin generation assay is the more physiologic one, as both thrombin generation pathways are involved; it is partially FVIII dependent. A suitable assay is the Defined Dual-Pathway Thrombin Generation Assay.
# The Defined Intrinsic Thrombin Generation Assay is performed as follows. FVIII activity of human plasma is inhibited by incubating (2 hours, 37° C.) 40 μl of human normal plasma with 10 μl heat inactivated anti-human FVIII plasma raised in goat (600 BU/ml, 6 hours incubated at 56° C.). […] Instead of FVIII-inhibited plasma, FVIII inhibitor patient plasma or several depleted plasmas can be used. The micro-plate is immediately put into a GENios Plus (Tecan) or Safire 2 (Tecan) fluorescence reader and the fluorescence signal (ex 340 nm/em 440 nm) is followed kinetically by reading the plate every 21 seconds.
# For calculation of activity equivalent units experiments are performed with dilutions of Factor Eight Inhibitor Bypassing Agent (FEIBA, Baxter AG), Immunate (human FVIII, purified plasma derived) reference standard (Baxter AG) or Recombinate standard (human FVIII, purified recombinant, Baxter AG). A linear fit of the logarithm of FEIBA (FVIII) concentration plotted against thrombin generation time at peak thrombin results in a standard curve. With this curve FEIBA (FVIII) equivalent activity is calculated for a defined peptide concentration. […] Thus, where a concentration of 100 μM is given, the actual concentration in the final assay volume in 40 μM.
# Compounds were screened using the “Defined intrinsic thrombin generation assay” in which thrombin generation was quantified in vitro in FVIII-inhibited human plasma in the presence of Factor XIa and phospholipid vesicles. Further compounds were screened in the above assay, and in the “Defined dual-pathway thrombin generation assay” using tissue factor and phospholipids instead of Factor XIa and phospholipids, as described in the specific description.
# Various concentrations of each peptide were tested in the defined intrinsic thrombin generation assay using human FVIII inhibited plasma.
# Plasma stability = conditions: human
# Method: Half-life of compounds in human or mouse plasma, or percentage of compound remaining after an incubation in human or mouse plasma, is determined as follows. In the experimental procedure, test compound concentrations are 5 μM, prepared from test compound stock solutions of 10 mM in DMSO. Propantheline is used as a standard. […] All of the samples are incubated in a water bath at 37° C. […] After a chosen duration of incubation (generally at t=60 min) each sample is mixed with a further 500 μl acetonitrile. The samples are mixed on a vortex mixer for 30 s and placed on ice for 10 min and collected for centrifugation. Samples are centrifuged at 20 000 g for 10 min at 4° C. 500 μl supernatant is transferred into a new 1.5 ml Eppendorf tube and an equal volume of acetonitrile is added. The sample is mixed again for 30 s using a vortex mixer. After a second centrifugation step (20 000 g, 10 min, 4° C.) 250 μl of the supernatant is transferred into HPLC glass vials for HPLC-MS analysis. Conditions for performing HPLC are as follows: Injection-volume is set to 20 μl. Temperature is set to 25° C. A linear gradient from 95:5 to 5:95 water:acetonitrile both containing 0:05% trifluoroacetic acid (TFA) (v/v) is applied at a flow rate of 0.3 ml/min for 10 min. The PDA-detector is scanning from 210-400 nm.
solubility kinetic (physchem),"remaining at 0.5 h, 5 μM (Plasma stability)","solubility (physchem; pH 7.4, Solubility in PBS pH 7.4)",SMILES,Thrombin peak time given as FEIBA equivalent activity ([1]; peptide 12.5 μM),Thrombin peak time given as FEIBA equivalent activity ([1]; peptide 25 μM),Thrombin peak time given as FEIBA equivalent activity ([1]; peptide 50 μM),Thrombin peak time given as FEIBA equivalent activity ([1]; peptide 100 μM),Thrombin peak time given as FEIBA equivalent activity ([1]; peptide 200 μM),Activity in the Defined Intrinsic Thrombin Generation Assay [1]
174 µM,112%,–,"CSCC[C@H]1NC(=O)[C@@H](Cc2ccc(O)cc2)NC(=O)[C@H](NC(=O)CCC(=O)NCCCOCCOCCOCCCNC(C)=O)CSSC[C@H](C(=O)N[C@H](Cc2ccc(O)cc2)C(=O)N[C@H](CCC(=O)O)C(N)=O)NC(=O)[C@@H](CC(=O)O)NC(=O)[C@@H](Cc2ccc(O)cc2)NC(=O)[C@@H](Cc2c[nH]c3ccccc23)NC(=O)[C@@H](Cc2ccccc2)NC1=O [Peptide B05, Ac-TTDS-(cymfwydc)-ye-NH2] ({X3-Suc}-[dC][dY][dM][dF][dW][dY][dD][dC][dY][dE]-NH2; disulfide 1-8)",126 mU/ml,152 mU/ml,270 mU/ml,649 mU/ml,1089 mU/ml,possess activity
48 µM,93%,≥ 25 µM,"CSCC[C@H]1NC(=O)[C@@H](Cc2ccc(O)cc2)NC(=O)[C@H](NC(=O)CCC(=O)NCCCOCCOCCOCCCNC(=O)[C@@H](N)CCCCN)CSSC[C@H](C(=O)N[C@H](Cc2ccc(O)cc2)C(=O)N[C@H](CCC(=O)O)C(N)=O)NC(=O)[C@@H](CC(=O)O)NC(=O)[C@@H](Cc2ccc(O)cc2)NC(=O)[C@@H](Cc2c[nH]c3ccccc23)NC(=O)[C@@H](Cc2ccccc2)NC1=O [Peptide B06, K-TTDS-(cymfwydc)-ye-NH2] ({X2-Suc}-[dC][dY][dM][dF][dW][dY][dD][dC][dY][dE]-NH2; disulfide 1-8)",95 mU/ml,157 mU/ml,172 mU/ml,378 mU/ml,902 mU/ml,possess activity
